Laboratory results from patent EP2999467B1, “USE OF A COMBINATION OF TWO COMPOUNDS FOR THE TREATMENT AND/OR PREVENTION OF BONE DISORDERS” (Institut National de la Recherche Agronomique (INRA), priority 2013, dated 2014).

Test system: RAW264.7
Assay: TRAP staining: RANKL-induced osteoclast differentiation, count of multinucleated TRAP+ cells
Format: cell-based
Source text: Les préostéoblastes primaires ont été isolés à partir de la calotte crânienne de rats Wistar nouveaux-nés par digestion enzymatique comme précédemment décrit [Declercq, H., Van den Vreken, N., De Maeyer, E., Verbeeck, R., Schacht, E., De Ridder, L., and Cornelissen, M. (2004). Isolation, proliferation and differentiation of osteoblastic cells to study cell/biomaterial interactions: comparison of different isolation techniques and source. Biomaterials 25, 757-68.]. Les précurseurs d'ostéoclastes RAW264.7 ont été obtenus auprès de l'ATCC (Manassas, VA, USA). Les préostéoblastes et les RAW264.7 ont été cultivés dans du milieu α-MEM (Invitrogen, Carlsbad, CA, USA) supplémenté avec 10% de SVF décomplémenté et de 100 unités/ml de pénicilline-streptomycine.
Pour la coloration TRAP, 60.000 cellules RAW264.7 ont été ensemencées dans des puits de plaques 12 puits pendant 12 heures puis traitées avec du DMSO/éthanol comme témoin ou de la fisétine (5 µM dans le DMSO) ou du DHA (50µM dans l'éthanol) ou la combinaison des deux (Fisétine 5 µM et DHA 50 µM) pendant 3 heures. Les cellules ont ensuite été induites à se différencier en présence de RANKL (50 ng/ml) avec du DMSO/éthanol ou de la fisétine (5 µM) ou du DHA (50 µM) ou la combinaison des deux (Fisétine 5 µM et DHA 50 µM) durant 4 jours avec un changement de milieux après 2 jours. De la BSA délipidée et sans endotoxines a été utilisée pour solubiliser le DHA avec un rapport 1/5 (BSA/DHA).
La coloration TRAP a été réalisée en utilisant le kit « leukocyte acid phosphatase » (Sigma-Aldrich) selon les recommandations du fournisseur après fixation des cellules. Les cellules TRAP+ multinucléées ont ensuite été comptées.

## CC/C=C\C/C=C\C/C=C\C/C=C\C/C=C\C/C=C\CCC(=O)O [DHA, acide docosahexaénoïque]
Mus musculus, RAW264.7, 96 h, DHA 50µM, RANKL 50 ng/ml, 4 days, vs RANKL condition, read-out: inhibition de l'induction par RANKL de la formation de cellules multinucléées TRAP+ (ostéoclastes)
  inhibition at 50 µM: 23%
Condition RANKL+DHA (50µM), RANKL alone 735+/-251
  ostéoclastes/cm^2: 564+/-259 ostéoclastes/cm^2
